The values that follow come from paper PMC12549564, “A thermo-sensitive peptide hydrogel loaded with paclitaxel and antimony nanosheets for synergistic photothermal-chemotherapeutic treatment of breast cancer” (Frontiers in Pharmacology, 2025).

Common to all, as to assay type: physicochemical
A short description of series [1]: Concentration study: solubility of TSP-5 in water. Particulars: for Solubility of TSP-5: aqueous solution, pH 7.4, 25 °C. The procedure:
Concentration study: At room temperature (25 °C), aqueous solutions of TSP-5 was prepared at concentrations of 15 mg/mL, 20 mg/mL, 25 mg/mL and 30 mg/mL, respectively, and adjusted to pH 7.4 with NaOH (0.5 M) and HCl (0.1 M). Gel formation was assessed via vial inversion.

Series [2] is described as follows: Temperature study: gelation of TSP-5, vial inversion. Particulars: for Gelation state: TSP-5 aqueous solution 20 mg/mL. The procedure: (§1) The gelation behavior of TSP-5 was evaluated at various concentrations, temperatures, and AM concentrations. Gel formation was assessed via vial inversion.
(§2) Temperature study: Aqueous solutions of TSP-5 (20 mg/mL) were prepared and then placed in water bath at 30 °C, 37 °C, 40 °C, 45 °C, 50 °C and 55 °C respectively to observe the gelatinization.

Series [3] can be described thus: AM concentration study: gelation time of TSP-5 loaded with AM. Particulars: TSP-5 20 mg/mL. As to the method:
as §1
AM concentration study: Aqueous solutions of TSP-5 (20 mg/mL) was prepared at 25 °C and AM suspension of different concentrations (0.2, 0.4, 0.6, 0.8 and 1.0 mg/mL) was added. The sample was then placed in a water bath at 37 °C and 45 °C respectively to observe the gelatinization.

The nature of series [4]: DLS particle size of TSP-5 hydrogel at different temperatures.
A short description of series [5]: Temperature study: gelation of TSP-5, vial inversion. Also on record: key: L: liquid; IS: insoluble; SS: slightly soluble. Particulars: TSP-5 20 mg/mL, water bath 30 °C. As to the method:
as §1, §2

Experiment in series [6]: as above
Particulars: TSP-5 20 mg/mL, water bath 40 °C. Also on record: key: L: liquid; VL: viscous liquid; SG: stable gel; UG: unstable gel. The procedure:
as §1, §2

The nature of series [7]: PTX release from hydrogel in vitro. Particulars: hydrogel 20 mg/mL TSP-5, 2 mg/mL PTX, 0.6 mg/mL AM, PBS pH 7.4, 37 °C, 120 rpm, 7 days, HPLC, n = 3. As to the method:
Gel sample (100 μL; 20 mg/mL TSP-5, 2 mg/mL PTX, 0.6 mg/mL AM) was prepared at 37 °C in a 1.5 mL EP tube. PBS (pH 7.4) was used to carefully wash the surface of the sample, and the cleaning solution was collected. The content of PTX not encapsulated was then determined by HPLC, and the encapsulation rate was calculated according to the formula: Encapsulation rate (%) = (PTX total –PTX in cleaning solution )/PTX total × 100%.
1 mL PBS (pH 7.4) was added as release medium, and the EP tube was placed in a thermostatic oscillator (120 rpm, 37 °C). All the release solution were carefully collected at different time points (0.5, 2, 4, 8, 12, 24, 48, 72, 96, 120, 144 and168 h), and the same volume of fresh release media was added. For the laser group, samples were irradiated (808 nm, 1 W/cm^2, 5 min) before each sampling. PTX release was quantified by HPLC.

The mark [8] stands for this setting: TSP-5 20 mg/mL, water bath 37 °C.

Take “Ac-DDIIIVPGVGK-NH2 [TSP-5, Ac-DDIII-VPGVG-K-NH2]”: the “Solubility of TSP-5” value in series [1] (peptide 15 mg/mL) is “L (liquid)”; in series [1] (peptide 20 mg/mL), “L (liquid)”; in series [1] (peptide 25 mg/mL) it was “SS (slightly soluble)”; in series [1] (peptide 30 mg/mL) it was “IS (insoluble)”. In series [1] (pH 7.4, 15–30 mg/mL, 25 °C, vial inversion), the Hydrogel formation result is reported as “no hydrogel formation was observed”. Besides, the “Gelation: time given for SG (stable gel)” value in series [2] (setting [8]) is listed as 32 min. Moreover, in series [2] (setting [8]), the “Gelation: time given for VL (viscous liquid)” value is given as 10 min. In addition, the “Gelation state” value in series [2] (pH 7.4, 37 °C) is “stable hydrogel”; in series [2] (pH 7.4, 45 °C) it was “completely viscous liquid”; in series [5], “L”; in series [6] it was “SG”. In addition, the “Gelation time: SG (stable gel)” value in series [3] (AM 0.2 mg/mL, 37 °C) was determined as 40 min; in series [3] (AM 0.4 mg/mL, 37 °C), 33 min; in series [3] (AM 0.6 mg/mL, 37 °C), 30 min; in series [3] (AM 0.8 mg/mL, 37 °C) it was 30 min. The “Gelation time: VL (viscous liquid)” value in series [3] (AM 0.2 mg/mL, 37 °C) is 15 min; in series [3] (AM 0.2 mg/mL, 45 °C), 3 min; in series [3] (AM 0.4 mg/mL, 37 °C), 14 min; in series [3] (AM 0.4 mg/mL, 45 °C), 4 min; in series [3] (AM 0.6 mg/mL, 37 °C), 10 min; in series [3] (AM 0.6 mg/mL, 45 °C) it was 2 min. For the same compound, the “Gelation time: VL (viscous liquid)” value in series [3] (AM 0.8 mg/mL, 37 °C) was found to be 9 min; in series [3] (AM 0.8 mg/mL, 45 °C) it was 2 min. The “Gelation time: UG (unstable gel)” value in series [3] (AM 0.2 mg/mL, 45 °C) turned out to be 39 min; in series [3] (AM 0.4 mg/mL, 45 °C) it was 33 min; in series [3] (AM 0.6 mg/mL, 45 °C), 30 min; in series [3] (AM 0.8 mg/mL, 45 °C) it was 30 min. Also, the “Hydrodynamic size (DLS)” value in series [4] (37 °C) is on record as ~1,300 nm; in series [4] (45 °C), approximately 350 nm.

Regarding `CC(=O)O[C@H]1C(=O)[C@@]2(C)[C@H]([C@H](OC(=O)c3ccccc3)[C@]3(O)C[C@H](OC(=O)[C@H](O)[C@@H](NC(=O)c4ccccc4)c4ccccc4)C(C)=C1C3(C)C)[C@]1(OC(C)=O)CO[C@@H]1C[C@@H]2O` [PTX, Paclitaxel], the “Cumulative release of PTX from the hydrogel” value was 61.83% in series [7] (with laser (808 nm, 1 W/cm^2, 5 min before each sampling)) and 42.81% in series [7] (without laser).
